What is called Ki is a dissociation constant, usually derived from enzyme kinetics or from competition with a known ligand. As a reminder, the inhibition is the relative decrease from the control value, in per cent. A word on the IC50: it is the concentration needed to halve the response being measured.

Each structure is given as a SMILES string.

40 compounds from patent US20040127395A1 (priority 2002, published 2004) can be followed below.

In experiment [1] the target is human histamine H4 receptor (Homo sapiens, UniProt Q9H3N8). The experiment is described as follows: biochemical.
human histamine H4 receptor, sequence (Q9H3N8 whole entry): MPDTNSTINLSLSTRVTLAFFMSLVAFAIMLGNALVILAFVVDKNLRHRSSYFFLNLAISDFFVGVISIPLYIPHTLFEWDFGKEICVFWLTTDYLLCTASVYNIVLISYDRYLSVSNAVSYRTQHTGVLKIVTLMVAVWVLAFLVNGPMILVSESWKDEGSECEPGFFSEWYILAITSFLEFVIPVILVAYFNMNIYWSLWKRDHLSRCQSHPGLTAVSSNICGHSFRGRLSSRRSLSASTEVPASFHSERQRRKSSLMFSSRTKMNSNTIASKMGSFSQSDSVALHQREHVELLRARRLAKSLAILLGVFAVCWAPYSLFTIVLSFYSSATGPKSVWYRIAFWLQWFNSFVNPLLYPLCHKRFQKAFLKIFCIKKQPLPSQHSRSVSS
Experiment [2] has as its system mouse bone marrow-derived mast cells. The experiment can be described thus: Histamine-induced mast cell chemotaxis in vitro (transwell). The settings on record: Mus musculus, Mast cell. It is filed as cell-based. On the procedure: Mast cells were differentiated from bone marrow derived from BALB/c or C57bl/6j mice. Mice were sacrificed by asphyxiation under 95% CO2 and femurs were removed. Bone marrow was aseptically isolated from the femurs. The cells (5×10^5/mL) were cultured at 37° C. with 5% CO2 in culture medium consisting of RPMI with 10% FCS, 0.1 mM non-essential amino acids, 50 μg/mL penicillin/streptomycin and 20% conditioned WEHI-3 medium. Conditioned WEHI-3 medium was prepared from WEHI-3 cells (ATCC), which were cultured in Iscoves Dulbeccos medium with 10% FCS, 4 mM L-glutamine, 1.5 g/L sodium carbonate, 0.05 μM beta-mercaptoethanol and 50 μg/mL penicillin/streptomycin. The filtered supernatant was used as the conditioned WEHI-3 medium. After 16 h in culture, the bone marrow cells were transferred to a new flask. The medium was refreshed once per week. After four weeks, the cells were tested by flow cytometry for IgE receptor and CD117 (c-kit) expression. Mast cells were incubated with anti-DNP IgE (ICN Pharmaceuticals, Costa Mesa, Calif.) or vehicle for 30 min, followed by FITC labeled anti-IgE (Pharmingen) or FITC labeled CD117 (Pharmingen) for 30 min on ice. The cultured mast cells consisted of a homogeneous population which was >99% IgE receptor positive and >99% CD117 positive. Mast cells of four to eight weeks culture time were used for experiments.
Transwells (Costar, Cambridge, Mass.) of a pore size of […] were coated with 100 μL of 100 ng/mL human fibronectin (Sigma) for 2 h at room temperature. […] Mast cells (2×10^5/well) were added to the top chamber. The plates were incubated for 3 h at 37° C. Transwells were removed and the number of cells in the bottom chamber was counted for 60 sec using a flow cytometer.

The next experiment has as its system human eosinophils. The experiment is described as follows: Histamine-induced eosinophil shape change (GAFS). It is filed as cell-based. The conditions noted are these: for effect on histamine-induced eosinophil shape change / Fold Change: antagonist 10 μM; for Fold Change: eosinophil shape change. As to the method:
Human granulocytes were isolated from human blood by a Ficoll gradient. The red blood cells were lysed with 5-10× Qiagen lysis buffer at room temperature for 5-7 min. Granulocytes were harvested and washed once with FACS buffer. The cells were resuspended at a density of 2×10^6 cells/mL in reaction buffer. […] Ten minutes later, the cells were transferred to ice and fixed with 250 μL of ice-cold fixative buffer (2% formaldehyde) for 1 min.

For the compound `CN1CCN(C(=O)c2cc3cc([N+](=O)[O-])ccc3[nH]2)CC1` [(4-Methyl-piperazin-1-yl)-(5-nitro-1H-indol-2-yl)-methanone], the Ki in experiment [1] was 46 nM.

`CC1CN(C(=O)c2cc3ccccc3[nH]2)CCN1` (centres unmarked) [(1H-Indol-2-yl)-(3-methyl-piperazin-1-yl)-methanone]: in experiment [1], the inhibition constant Ki is 100 nM. The same measure, in the same setting: under `CN1CCN(C(=O)c2cc3cccc(O)c3[nH]2)CC1` [(7-Hydroxy-1H-indol-2-yl)-(4-methyl-piperazin-1-yl)-methanone] stands 47 nM; under `CN1CCN(C(=O)c2cc3ccc(Cl)cc3[nH]2)CC1` [(6-Chloro-1H-indol-2-yl)-(4-methyl-piperazin-1-yl)-methanone], 124 nM.

`C[C@@H]1CN(C(=O)c2cc3cc(Cl)ccc3[nH]2)CCN1` [(5-Chloro-1H-indol-2-yl)-((R)-3-methyl-piperazin-1-yl)-methanone] displayed an inhibition constant Ki in experiment [1] of 34 nM. Consider `O=C(c1nc2cc(Cl)ccc2[nH]1)N1CCNCC1` [(5-Chloro-1H-benzoimidazol-2-yl)-piperazin-1-yl-methanone], for which, in experiment [2], the inhibition at 1 µM worked out at 8% and the inhibition at 10 µM is 101%.

On to `CN1CCN(C(=O)c2cc3sc(Cl)cc3[nH]2)CC1` [(2-Chloro-4H-thieno[3,2-b]pyrrol-5-yl)-(4-methyl-piperazin-1-yl)-methanone], for which, in experiment [2], the inhibition at 1 µM came out at 92%.

The compound `CN1CCN(C(=O)c2cc3cc(Cl)cc(Cl)c3[nH]2)CC1` [(5,7-Dichloro-1H-indol-2-yl)-(4-methyl-piperazin-1-yl)-methanone] had a Ki in experiment [1] of 10 nM. As for `CN1CCN(C(=O)c2cc3cccc(N)c3[nH]2)CC1` [(7-Amino-1H-indol-2-yl)-(4-methyl-piperazin-1-yl)-methanone], the inhibition at 1 µM in experiment [2] worked out at 99%. Further, in experiment [1], the affinity, expressed as Ki, was 7 nM. Regarding `Cc1csc2cc(C(=O)N3CCN(C)CC3)[nH]c12` [(4-Methyl-piperazin-1-yl)-(3-methyl-4H-thieno[3,2-b]pyrrol-5-yl)-methanone], in experiment [2], the inhibition at 1 µM came out at 60%. For `O=C(c1cc2cc(Cl)ccc2[nH]1)N1CCNCC1` [(5-Chloro-1H-indol-2-yl)-piperazin-1-yl-methanone], the inhibition at 1 µM in experiment [2] stood at 99%. Moreover, the affinity in experiment [1], expressed as Ki, was 10 nM.

In the case of `CN1CCN(C(=O)c2cc3c(Cl)c(Cl)ccc3[nH]2)CC1` [(4,5-Dichloro-1H-indol-2-yl)-(4-methyl-piperazin-1-yl)-methanone], the affinity in experiment [1], expressed as Ki, was 11 nM. In experiment [1], `CN1CCN(C(=O)c2cc3ccc(Br)cc3[nH]2)CC1` [(6-Bromo-1H-indol-2-yl)-(4-methyl-piperazin-1-yl)-methanone] displayed a Ki of 188 nM. Still for that read-out and setting: the figure for `COc1cccc(-c2ccc3[nH]c(C(=O)N4CCN(C)CC4)cc3c2)c1` [[5-(3-Methoxy-phenyl)-1H-indol-2-yl]-(4-methyl-piperazin-1-yl)-methanone] is 145 nM; for `O=C(c1cc2cc(Cl)ccc2[nH]1)N1CCN(CCO)CC1` [(5-Chloro-1H-indol-2-yl)-[4-(2-hydroxy-ethyl)-piperazin-1-yl]-methanone] it is 25 nM; for `Cc1cccc2cc(C(=O)N3CCN(C)CC3)[nH]c12` [(7-Methyl-1H-indol-2-yl)-(4-methyl-piperazin-1-yl)-methanone] it is 6.6 nM. On the same count and under the same terms, under `CN1CCN(C(=S)c2cc3ccccc3[nH]2)CC1` [(1H-Indol-2-yl)-(4-methyl-piperazin-1-yl)-methanethione] stands 132 nM. On to `CNC(=C[N+](=O)[O-])NCCSCc1ccc(CN(C)C)o1` [ranatidine], for which the “effect on histamine-induced eosinophil shape change” value in the experiment on human eosinophils is “did not alter”. Further, the “Fold Change” value is reported as 1.00 in the experiment on human eosinophils (histamine 0 μM); 1.04 in the experiment with human eosinophils (histamine 0.01 μM); 1.21 in the experiment on human eosinophils (histamine 0.1 μM); 1.49 in the experiment on human eosinophils (histamine 1 μM); 1.64 with human eosinophils (histamine 10 μM). In experiment [1], `CN1CCN(C(=O)c2cc3cc(Br)ccc3o2)CC1` [(5-Bromo-benzofuran-2-yl)-(4-methyl-piperazin-1-yl)-methanone] returned a Ki of 95 nM. As to `S=C(NC1CCCCC1)N1CCC(c2cnc[nH]2)CC1` [Thioperamide], the IC50 in the experiment with human eosinophils (Eosinophil, human eosinophils, read-out: IC50 for inhibition of histamine-induced eosinophil shape change) turned out to be 1500 nM. The compound `CN1CCN(C(=O)c2cc3ccc(O)cc3[nH]2)CC1` [(6-Hydroxy-1H-indol-2-yl)-(4-methyl-piperazin-1-yl)-methanone] showed a Ki in experiment [1] of 32.5 nM. Same read-out and setting: under `Cc1ccc2[nH]c(C(=O)N3CCN(C)CC3)cc2c1` [(5-Methyl-1H-indol-2-yl)-(4-methyl-piperazin-1-yl)-methanone] stands 11 nM; under `C[C@H]1CN(C(=O)c2cc3cc(Cl)ccc3[nH]2)CCN1` [(5-Chloro-1H-indol-2-yl)-((S)-3-methyl-piperazin-1-yl)-methanone], 36 nM. For the compound `CN1CCN(C(=O)c2nc3cc(F)c(F)cc3[nH]2)CC1` [(5,6-Difluoro-1H-benzoimidazol-2-yl)-(4-methyl-piperazin-1-yl)-methanone], in experiment [2], the inhibition at 1 µM came out at 72% and the inhibition at 10 µM was 97%. `CN1CCN(C(=O)c2cc3cc(O)ccc3[nH]2)CC1` [(5-Hydroxy-1H-indol-2-yl)-(4-methyl-piperazin-1-yl)-methanone] had a Ki in experiment [1] of 19 nM. `CN1CCN(C(=O)c2cc3cccc(Br)c3[nH]2)CC1` [(7-Bromo-1H-indol-2-yl)-(4-methyl-piperazin-1-yl)-methanone] had a Ki in experiment [1] of 55 nM.

In turn, `CN1CCN(C(=O)c2cc3cc(F)ccc3[nH]2)CC1` [(5-Fluoro-1H-indol-2-yl)-(4-methyl-piperazin-1-yl)-methanone] gave a Ki in experiment [1] of 18 nM.

As to `Nc1cccc2cc(C(=O)N3CCNCC3)[nH]c12` [(7-Amino-1H-indol-2-yl)-piperazin-1-yl-methanone], the Ki in experiment [1] was determined as 43 nM. Still for that read-out and setting: the figure for `CC1CN(C(=O)c2cc3cc(Cl)ccc3[nH]2)CCN1` (centres unmarked) [(5-Chloro-1H-indol-2-yl)-(3-methyl-piperazin-1-yl)-methanone] is 41 nM. For `Cc1cc(C)c2[nH]c(C(=O)N3CCN(C)CC3)cc2c1` [(5,7-Dimethyl-1H-indol-2-yl)-(4-methyl-piperazin-1-yl)-methanone], in experiment [1], affinity was put at a Ki of 30 nM. In the case of `CC1CN(C(=O)c2cc3scc(Br)c3[nH]2)CCN1` (centres unmarked) [(3-Bromo-4H-thieno[3,2-b]pyrrol-5-yl)-(3-methyl-piperazin-1-yl)-methanone], in experiment [2], the inhibition at 1 µM was found to be 0% and the inhibition at 10 µM was determined as 0%. For `CN1CCN(C(=O)c2cc3cc(F)cc(F)c3[nH]2)CC1` [(5,7-Difluoro-1H-indol-2-yl)-(4-methyl-piperazin-1-yl)-methanone], the inhibition at 1 µM in experiment [2] came out at 100%. The compound further returned a Ki in experiment [1] of 19 nM. Regarding `Cc1ccc2[nH]c(C(=O)NC3CC4CCC(C3)N4C)nc2c1` (centres unmarked) [5-Methyl-1H-benzoimidazole-2-carboxylic acid(8-methyl-8-aza-bicyclo[3.2.1]oct-3-yl)-amide], in experiment [2], the inhibition at 1 µM turned out to be 66% and the inhibition at 10 µM was determined as 27%.

For the compound `CN1CCN(C(=O)c2cc3cc(Cl)sc3[nH]2)CC1` [(2-Chloro-6H-thieno[2,3-b]pyrrol-5-yl)-(4-methyl-piperazin-1-yl)-methanone], in experiment [2], the inhibition at 1 µM came out at 103% and the inhibition at 10 µM was 106%.

For `Cc1cc(Cl)cc2cc(C(=O)N3CCN(C)CC3)[nH]c12` [(5-Chloro-7-methyl-1H-indol-2-yl)-(4-methyl-piperazin-1-yl)-methanone], in experiment [2], the inhibition at 1 µM turned out to be 100% and the inhibition at 10 µM came to 97%. The compound also registered a Ki in experiment [1] of 1 nM.

With `O=C(c1cc2cc(Cl)sc2[nH]1)N1CCN2CCCC2C1` (centres unmarked) [(2-Chloro-6H-thieno[2,3-b]pyrrol-5-yl)-(hexahydro-pyrrolo[1,2-a]pyrazin-2-yl)-methanone], in experiment [2], the inhibition at 1 µM is 0% and the inhibition at 10 µM is 0%. As for `CN(C)CCOC(c1ccccc1)c1ccccc1` [diphenhydramine], the “effect on histamine-induced eosinophil shape change” value with human eosinophils is reported as “did not alter”.

`CN1CCN(C(=O)c2cc3c(Br)cccc3[nH]2)CC1` [(4-Bromo-1H-indol-2-yl)-(4-methyl-piperazin-1-yl)-methanone] gave a Ki in experiment [1] of 40 nM.

For the compound `CN1CCN(C(=O)c2cc3cccc(Cl)c3[nH]2)CC1` [(7-Chloro-1H-indol-2-yl)-(4-methyl-piperazin-1-yl)-methanone], the Ki in experiment [1] was determined as 23 nM. With `CC1CN(C(=O)c2cc3cc(Cl)ccc3[nH]2)CCN1C` (centres unmarked) [(5-Chloro-1H-indol-2-yl)-(3,4-dimethyl-piperazin-1-yl)-methanone], affinity in experiment [1] was put at a Ki of 27 nM.
